The results in this text go back to US10206394B2, “Herbicidal compounds” (Syngenta Participations AG, priority 2014, dated 2019).

Where two headings read alike, the source gives them in different places.

Holding throughout (assay): Glasshouse assay for herbicidal activity (pre- and post-emergence), percentage phytotoxicity
Holding throughout (type): in vivo

Assay [1] has as its system Echinochloa crus-galli (ECHCG). Particulars: Echinochloa crus-galli. Summed up: (§1)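 Potted test plants in standard soil received the compound pre-emergence (day 1) or post-emergence (about day 12). Evaluation: visual damage score from 0% (none) to 100% (total), 15 days after application post-emergence, 20 days pre-emergence.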
The next assay deals with Avena fatua (AVEFA). Particulars: Avena fatua. A digest of the protocol: as §1
The next assay has as its system Lolium perenne (LOLPE). Particulars: Lolium perenne. Summed up:
as §1

The subject of assay [2] is Alopecurus myosuroides (ALOMY). Particulars: Alopecurus myosuroides. A digest of the protocol: as §1
The mark [3] stands for this setting: post-emergence, 360 h, 250 g/ha, post-emergence, 15 DAA, visual assessment (100%=total damage, 0%=no damage), read-out: Post-emergence herbicidal activity (percentage phytotoxicity) ECHCG POST.
The mark [4] stands for this setting: pre-emergence, 480 h, 250 g/ha, pre-emergence, 20 DAA, visual assessment (100%=total damage, 0%=no damage), read-out: Pre-emergence herbicidal activity (percentage phytotoxicity) ECHCG PRE.
Where [5] appears, read: post-emergence, 360 h, 250 g/ha, post-emergence, 15 DAA, visual assessment (100%=total damage, 0%=no damage), read-out: Post-emergence herbicidal activity (percentage phytotoxicity) AVEFA POST.
Where [6] appears, read: pre-emergence, 480 h, 250 g/ha, pre-emergence, 20 DAA, visual assessment (100%=total damage, 0%=no damage), read-out: Pre-emergence herbicidal activity (percentage phytotoxicity) AVEFA PRE.
[7] abbreviates: post-emergence, 360 h, 250 g/ha, post-emergence, 15 DAA, visual assessment (100%=total damage, 0%=no damage), read-out: Post-emergence herbicidal activity (percentage phytotoxicity) LOLPE POST.
The mark [8] stands for this setting: pre-emergence, 480 h, 250 g/ha, pre-emergence, 20 DAA, visual assessment (100%=total damage, 0%=no damage), read-out: Pre-emergence herbicidal activity (percentage phytotoxicity) LOLPE PRE.
Setting [9] is: post-emergence, 360 h, 250 g/ha, post-emergence, 15 DAA, visual assessment (100%=total damage, 0%=no damage), read-out: Post-emergence herbicidal activity (percentage phytotoxicity) ALOMY POST.
[10] abbreviates: pre-emergence, 480 h, 250 g/ha, pre-emergence, 20 DAA, visual assessment (100%=total damage, 0%=no damage), read-out: Pre-emergence herbicidal activity (percentage phytotoxicity) ALOMY PRE.
[11] abbreviates: post-emergence, 360 h, Rate 250 g/ha, post-emergence, assessed visually 15 DAA, 100%=total damage, 0%=no damage, read-out: Post-emergence herbicidal activity (percentage phytotoxicity) ECHCG POST.
The mark [12] stands for this setting: pre-emergence, 480 h, Rate 250 g/ha, pre-emergence, assessed visually 20 DAA, 100%=total damage, 0%=no damage, read-out: Pre-emergence herbicidal activity (percentage phytotoxicity) ECHCG PRE.
[13] abbreviates: post-emergence, 360 h, Rate 250 g/ha, post-emergence, assessed visually 15 DAA, 100%=total damage, 0%=no damage, read-out: Post-emergence herbicidal activity (percentage phytotoxicity) AVEFA POST.
Where [14] appears, read: pre-emergence, 480 h, Rate 250 g/ha, pre-emergence, assessed visually 20 DAA, 100%=total damage, 0%=no damage, read-out: Pre-emergence herbicidal activity (percentage phytotoxicity) AVEFA PRE.
Where [15] appears, read: post-emergence, 360 h, Rate 250 g/ha, post-emergence, assessed visually 15 DAA, 100%=total damage, 0%=no damage, read-out: Post-emergence herbicidal activity (percentage phytotoxicity) LOLPE POST.
Setting [16] is: pre-emergence, 480 h, Rate 250 g/ha, pre-emergence, assessed visually 20 DAA, 100%=total damage, 0%=no damage, read-out: Pre-emergence herbicidal activity (percentage phytotoxicity) LOLPE PRE.
[17] abbreviates: post-emergence, 360 h, Rate 250 g/ha, post-emergence, assessed visually 15 DAA, 100%=total damage, 0%=no damage, read-out: Post-emergence herbicidal activity (percentage phytotoxicity) ALOMY POST.
Setting [18] is: pre-emergence, 480 h, Rate 250 g/ha, pre-emergence, assessed visually 20 DAA, 100%=total damage, 0%=no damage, read-out: Pre-emergence herbicidal activity (percentage phytotoxicity) ALOMY PRE.

With `Cc1cc(-n2ncc(Cl)c2C)cc(C)c1C1C(=O)CC(CC(=O)NC(C)(C)C)C1=O` (centres unmarked) [Compound B104], the pest or weed control at 250 g/ha was 70% in assay [1] (setting [3]); 20% in assay [1] (setting [4]); 80% in the assay on Avena fatua (AVEFA) (setting [5]); 10% in the assay with Avena fatua (AVEFA) (setting [6]); 70% with Lolium perenne (LOLPE) (setting [7]); 10% with Lolium perenne (LOLPE) (setting [8]). For the same molecule, the pest or weed control at 250 g/ha in assay [2] (setting [9]) was determined as 80%; in assay [2] (setting [10]), 40%.
For the molecule `Cc1cc(C)c(C2C(=O)CC(CC(=O)NCC3(F)COC3)C2=O)c(C)c1` (centres unmarked) [Compound A180], the pest or weed control at 250 g/ha in assay [1] (post-emergence, 360 h, post-emergence, 250 g/ha, 15 DAA, visual score (100%=total damage; 0%=no damage), read-out: ECHCG POST herbicidal activity (percentage phytotoxicity)) was 70%; in assay [1] (pre-emergence, 480 h, pre-emergence, 250 g/ha, 20 DAA, visual score (100%=total damage; 0%=no damage), read-out: ECHCG PRE herbicidal activity (percentage phytotoxicity)), 20%; with Avena fatua (AVEFA) (post-emergence, 360 h, post-emergence, 250 g/ha, 15 DAA, visual score (100%=total damage; 0%=no damage), read-out: AVEFA POST herbicidal activity (percentage phytotoxicity)), 70%; with Avena fatua (AVEFA) (pre-emergence, 480 h, pre-emergence, 250 g/ha, 20 DAA, visual score (100%=total damage; 0%=no damage), read-out: AVEFA PRE herbicidal activity (percentage phytotoxicity)), 0%; in the assay on Lolium perenne (LOLPE) (post-emergence, 360 h, post-emergence, 250 g/ha, 15 DAA, visual score (100%=total damage; 0%=no damage), read-out: LOLPE POST herbicidal activity (percentage phytotoxicity)) it was 30%; in the assay with Lolium perenne (LOLPE) (pre-emergence, 480 h, pre-emergence, 250 g/ha, 20 DAA, visual score (100%=total damage; 0%=no damage), read-out: LOLPE PRE herbicidal activity (percentage phytotoxicity)), 0%. Moreover, the pest or weed control at 250 g/ha in assay [2] (post-emergence, 360 h, post-emergence, 250 g/ha, 15 DAA, visual score (100%=total damage; 0%=no damage), read-out: ALOMY POST herbicidal activity (percentage phytotoxicity)) was found to be 70%; in assay [2] (pre-emergence, 480 h, pre-emergence, 250 g/ha, 20 DAA, visual score (100%=total damage; 0%=no damage), read-out: ALOMY PRE herbicidal activity (percentage phytotoxicity)), 40%.
As to `C#CC(C)(C)NC(=O)CC1CC(=O)C(c2c(C)cc(C#CC)cc2C)C1=O` (single isomer, unassigned) [Compound A56], the pest or weed control at 250 g/ha in assay [1] (setting [11]) is 100%; in assay [1] (setting [12]) it was 100%; in the assay on Avena fatua (AVEFA) (setting [13]) it was 100%; in the assay on Avena fatua (AVEFA) (setting [14]), 90%; in the assay on Lolium perenne (LOLPE) (setting [15]), 90%; with Lolium perenne (LOLPE) (setting [16]), 90%. For the same molecule, the pest or weed control at 250 g/ha in assay [2] (setting [17]) and in assay [2] (setting [18]) was 100% in each case.
Take `CCc1cc(-n2cc(Cl)cn2)cc(C)c1C1C(=O)CC(CC(=O)NCC2CC2)C1=O` (centres unmarked) [Compound B237]: the pest or weed control at 250 g/ha in assay [1] (post-emergence, 360 h, POST-emergence, rate 250 g/ha, visual score 15 DAA (100%=total damage, 0%=no damage), read-out: Post-emergence herbicidal activity (percentage phytotoxicity) ECHCG POST) came to 100%; in assay [1] (pre-emergence, 480 h, PRE-emergence, rate 250 g/ha, visual score 20 DAA (100%=total damage, 0%=no damage), read-out: Pre-emergence herbicidal activity (percentage phytotoxicity) ECHCG PRE), 90%; in the assay on Avena fatua (AVEFA) (post-emergence, 360 h, POST-emergence, rate 250 g/ha, visual score 15 DAA (100%=total damage, 0%=no damage), read-out: Post-emergence herbicidal activity (percentage phytotoxicity) AVEFA POST) it was 100%; with Avena fatua (AVEFA) (pre-emergence, 480 h, PRE-emergence, rate 250 g/ha, visual score 20 DAA (100%=total damage, 0%=no damage), read-out: Pre-emergence herbicidal activity (percentage phytotoxicity) AVEFA PRE) it was 90%; with Lolium perenne (LOLPE) (post-emergence, 360 h, POST-emergence, rate 250 g/ha, visual score 15 DAA (100%=total damage, 0%=no damage), read-out: Post-emergence herbicidal activity (percentage phytotoxicity) LOLPE POST), 100%; in the assay with Lolium perenne (LOLPE) (pre-emergence, 480 h, PRE-emergence, rate 250 g/ha, visual score 20 DAA (100%=total damage, 0%=no damage), read-out: Pre-emergence herbicidal activity (percentage phytotoxicity) LOLPE PRE), 90%. The pest or weed control at 250 g/ha in assay [2] (post-emergence, 360 h, POST-emergence, rate 250 g/ha, visual score 15 DAA (100%=total damage, 0%=no damage), read-out: Post-emergence herbicidal activity (percentage phytotoxicity) ALOMY POST) turned out to be 100%; in assay [2] (pre-emergence, 480 h, PRE-emergence, rate 250 g/ha, visual score 20 DAA (100%=total damage, 0%=no damage), read-out: Pre-emergence herbicidal activity (percentage phytotoxicity) ALOMY PRE) it was 100%.
Take `C#CC(C)(C)NC(=O)CC1CC(=O)C(c2c(C)cc(-c3ccc(Cl)cn3)cc2C)C1=O` (centres unmarked) [Compound B363]: the pest or weed control at 250 g/ha in assay [1] (post-emergence, 360 h, Rate 250 g/ha, post-emergence, visual assessment 15 DAA, 100%=total damage, 0%=no damage, read-out: Post-emergence herbicidal activity (percentage phytotoxicity) ECHCG POST) came to 100%; in assay [1] (pre-emergence, 480 h, Rate 250 g/ha, pre-emergence, visual assessment 20 DAA, 100%=total damage, 0%=no damage, read-out: Pre-emergence herbicidal activity (percentage phytotoxicity) ECHCG PRE) it was 100%; in the assay on Avena fatua (AVEFA) (post-emergence, 360 h, Rate 250 g/ha, post-emergence, visual assessment 15 DAA, 100%=total damage, 0%=no damage, read-out: Post-emergence herbicidal activity (percentage phytotoxicity) AVEFA POST), 100%; with Avena fatua (AVEFA) (pre-emergence, 480 h, Rate 250 g/ha, pre-emergence, visual assessment 20 DAA, 100%=total damage, 0%=no damage, read-out: Pre-emergence herbicidal activity (percentage phytotoxicity) AVEFA PRE), 90%; in the assay with Lolium perenne (LOLPE) (post-emergence, 360 h, Rate 250 g/ha, post-emergence, visual assessment 15 DAA, 100%=total damage, 0%=no damage, read-out: Post-emergence herbicidal activity (percentage phytotoxicity) LOLPE POST) it was 90%; in the assay with Lolium perenne (LOLPE) (pre-emergence, 480 h, Rate 250 g/ha, pre-emergence, visual assessment 20 DAA, 100%=total damage, 0%=no damage, read-out: Pre-emergence herbicidal activity (percentage phytotoxicity) LOLPE PRE) it was 100%. The pest or weed control at 250 g/ha in assay [2] (post-emergence, 360 h, Rate 250 g/ha, post-emergence, visual assessment 15 DAA, 100%=total damage, 0%=no damage, read-out: Post-emergence herbicidal activity (percentage phytotoxicity) ALOMY POST) turned out to be 90%; in assay [2] (pre-emergence, 480 h, Rate 250 g/ha, pre-emergence, visual assessment 20 DAA, 100%=total damage, 0%=no damage, read-out: Pre-emergence herbicidal activity (percentage phytotoxicity) ALOMY PRE) it was 100%.
Regarding `Cc1cc(-c2ncc(Cl)cc2C#N)cc(C)c1C1C(=O)CC(CC(=O)NC(C)(C)C)C1=O` (centres unmarked) [Compound B48], the pest or weed control at 250 g/ha amounted to 100% in assay [1] (setting [3]); 90% in assay [1] (setting [4]); 80% in the assay on Avena fatua (AVEFA) (setting [5]); 30% in the assay with Avena fatua (AVEFA) (setting [6]); 90% in the assay with Lolium perenne (LOLPE) (setting [7]); 80% with Lolium perenne (LOLPE) (setting [8]). The pest or weed control at 250 g/ha in assay [2] (setting [9]) was 80%; in assay [2] (setting [10]), 90%.
Turning to `C=CCCNC(=O)CC1CC(=O)C(c2c(C)cc(C#CC)cc2C)C1=O` (centres unmarked) [Compound A57], the pest or weed control at 250 g/ha in assay [1] (setting [11]) was found to be 100%; in assay [1] (setting [12]), 100%; in the assay with Avena fatua (AVEFA) (setting [13]) it was 100%; in the assay on Avena fatua (AVEFA) (setting [14]), 90%; with Lolium perenne (LOLPE) (setting [15]) it was 100%; in the assay on Lolium perenne (LOLPE) (setting [16]), 100%. In addition, the pest or weed control at 250 g/ha in assay [2] (setting [17]) and in assay [2] (setting [18]) was 100% in each case.
